Where “and” joins values, the source holds several entries; their conditions need not be identical. Equal entries are not always repeated. Where two headings read alike, the source gives them in different places. Square brackets hold non-standard residues; d marks the D form. Ends that are not written are not given here. Peptide text beside a SMILES is read from it. Oic = O=C(O)[C@@H]1C[C@@H]2CCCC[C@@H]2N1; Phe(4-Cl) = N[C@@H](Cc1ccc(Cl)cc1)C(=O)O; Phe(4-F) = N[C@@H](Cc1ccc(F)cc1)C(=O)O; Hyp = O=C(O)[C@@H]1C[C@@H](O)CN1; β3hF = N[C@H](CC(=O)O)Cc1ccccc1
Experiments:
Bombyx mori larval gut = conditions: cited from earlier work
[1] = tested on: honey bee FMRFamide receptor; test: Activity on the honey bee FMRFamide receptor expressed in the same system; format: cell-based; conditions: in words
Procedure: (§1) Approximately thirty hours after transfection, the cells were collected and preincubated with coelenterazine h for the functional assay. The ligands in serial dilutions were loaded into 96-well opaque plates. Cells treated with coelenterazine h were injected into each well on an Orion microplate luminometer (Berthold) luminescent plate reader. The luminescence was measured for 20 seconds immediately after the cell injections. Data analyses were performed to determine the accumulated luminescence value for 20 seconds after extraction of blank-well luminescence. A dose-response curve was generated and the EC50 (50% effective concentration) was calculated in Origin 7 (OriginLab).
(§2) Honey bee FMRFamide receptor was cloned and expressed in the same system as described for the procotolin receptor. […] Potential effects of the peptidomimetics 2439, 2334, 2336, Ac-2442, and H2O control were tested by injections of the compounds into the thorax of worker honey bees.

[2] = tested on: empty vector transfected cells; test: Receptor activity assay, negative control: cells transfected with empty vector; format: cell-based; conditions: 10 μM proctolin
Procedure: as §1, with “Receptor activity assay: […] Approximately” for “Approximately”, “[…] The receptor” for “A dose-response curve”, “also tested with a variety of peptide analogues” for “generated”, “peptidomimetics.” for “the EC50 (50% effective concentration) was calculated in Origin 7 (OriginLab).”

[3] = target: T1, varroa mite proctolin receptor (VdProctR) (Varroa destructor, UniProt A0A7T1TE40); test: Receptor activity assay: luminescence in cells transiently transfected with varroa mite proctolin receptor; format: cell-based; conditions: for EC50: varroa mite proctolin receptor; for Activity at high concentrations compared with proctolin: at 1 μM and 10 μM
T1 sequence (A0A7T1TE40 1-530): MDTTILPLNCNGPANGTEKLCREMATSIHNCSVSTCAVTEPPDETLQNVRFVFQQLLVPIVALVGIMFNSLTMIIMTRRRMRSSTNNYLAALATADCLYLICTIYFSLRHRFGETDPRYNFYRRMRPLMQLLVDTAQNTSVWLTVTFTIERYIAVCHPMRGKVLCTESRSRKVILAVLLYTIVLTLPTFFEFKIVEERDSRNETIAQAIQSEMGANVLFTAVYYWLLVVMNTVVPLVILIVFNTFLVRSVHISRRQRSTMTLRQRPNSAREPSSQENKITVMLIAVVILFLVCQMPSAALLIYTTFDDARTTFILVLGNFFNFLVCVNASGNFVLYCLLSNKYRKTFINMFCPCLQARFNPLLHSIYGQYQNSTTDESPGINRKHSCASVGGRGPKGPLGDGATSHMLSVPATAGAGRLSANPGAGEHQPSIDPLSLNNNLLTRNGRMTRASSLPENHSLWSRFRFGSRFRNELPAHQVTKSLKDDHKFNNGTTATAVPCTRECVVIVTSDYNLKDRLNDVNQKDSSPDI
Procedure: as §1

honey bee queen = conditions: injection, 1 μL containing 1 μg; cited from earlier work
Varroa mites [4] = test: Injection of compound into the body cavity of varroa mites (excretion); format: in vivo, Varroa destructor; conditions: ~5 nL of 200 μM
Excerpt: Micro-glass electrodes were used for the injections using the pressure injection system (Dagan PMI-200). All injected animals were within 5 hr after the collections as described above.

worker honey bees = test: Injection into the thorax of worker honey bees (negative effects); format: in vivo, honey bee; conditions: injection of 50 nL at 200 μM into the thorax, 24-hour observation, n=4
Procedure: as §2

Varroa mites [5] = test: Varroa mite toxicity test (forced feeding, 200 nL drop on the gnathosoma; paralysis/death counted); format: in vivo, Varroa destructor; conditions: 48-hour treatment, feeding assay
Procedure: Varroa mite toxicity test: Adult female Varroa mites were collected using a sugar roll method from honey bee hives located at the East Campus apiary of the University of Nebraska (Lincoln, Nebr. USA). The hives were not treated with chemicals for honey bee parasites or pathogens. The mites were sorted in the laboratory with a paint brush and tested within 4 h post collection. The mites were placed in 9 cm diameter Petri dishes (Fisher Scientific) lined with filter paper. The dorsal side of the mites was secured to a strip of tape placed on the filter paper. Ten mites were secured to the tape in each dish and three dishes were used for each treatment (i.e., 30 mites/treatment). The peptide mimics were prepared in autoclaved ddH2O to a concentration of 0.1 nM for 2334, 2336, and Ac-2442 and 3 nM for 2326. Each peptide mimic was delivered as a 200 nL aliquot to the gnathosoma of the mites with autoclaved ddH2O serving as the untreated control. Following exposure to the peptide mimics, the number of affected (i.e., dead and/paralyzed) was observed and recorded at 1, 2, 6, 12, 24, and 48 h. The percent effect for each treatment was analyzed using a one-way analysis of variance (ANOVA) with a Tukey's post-hoc test (GraphPad Prism, La Jolla, Calif.; p<0.05).
In the continued bioassay (FIG. 4 and FIG. 5), the toxicities were assessed by counting paralysis/death in feeding assay. […]

[6] = EC50 (nM), first set of experiments
[7] = EC50 (nM), second set of peptidomimetics
[8] = first set of experiments, EC50 relative to proctolin (0.22 nM)
[9] = second set, EC50 relative to proctolin (14.19 nM)
[10] = first set of experiments, read-out: EC50

Q: For RYLPT [Proctolin, RYLPT], which “Concentration required for hindgut contraction” value (Bombyx mori larval gut; Bombyx mori larval hindgut) is on record?
A: 180 µM

Q: What about the “Concentration required in the midgut to slightly reduce leucine uptake” value (Bombyx mori larval gut; Bombyx mori larval midgut) of the same compound?
A: 10 µM

Q: What about the “Activity on the honey bee FMRFamide receptor” value [1] of the same compound?
A: no activities

Q: And the “Activity on empty vector transfected cells” value [2]?
A: did not show any activity

Q: What about the EC50 [3, 6] of the same compound?
A: 0.22 nM

Q: What about the EC50 [3, 7] of the same compound?
A: 14.2 nM

Q: What about the Fold change [3, 8] of the same compound?
A: 1.00

Q: And the Fold change [3, 9]?
A: 1.00

Q: And the “Egg-laying activity of the queen” value (honey bee queen)?
A: increased the egg-laying activity of the queen

Q: For `CC(C)C[C@H](NC(=O)[C@H](Cc1ccc(F)cc1)NC(=O)[C@@H](N)CCCNC(=N)N)C(=O)N1C[C@H](O)C[C@H]1C(=O)N[C@H](C(=O)O)[C@@H](C)O` [Analog 2441, R[Phe(4-F)]L[HyP]T] (H-R[Phe(4-F)]L[Hyp]T-OH; N-terminus and C-terminus assumed), which EC50 [3, 7] is on record?
A: 9.93 nM

Q: And the “Activity compared with proctolin, in words” value ([3]; second set, Y2 phenylalanine variants)?
A: higher activity than proctolin

Q: And the Fold change [3, 9]?
A: 0.70

Q: Which results are given for `CC(C)C[C@H](NC(=O)C[C@H](Cc1ccccc1)NC(=O)[C@@H](N)CCCNC(=N)N)C(=O)N1CCC[C@H]1C(=O)N[C@H](C(=O)O)[C@@H](C)O` [Analog 2333, R[β3F]LPT] (H-R[β3hF]LPT-OH)?
A: Fold change [3, 8]: 991.82; EC50 [3, 10]: 218 nM

Q: What does the source list for `CC(C)C[C@H](NC(=O)[C@H](Cc1ccc(O)cc1)NC(=O)[C@@H](N)CCCNC(=N)N)C(=O)N1CCC[C@H]1C(=O)N[C@@H](C(=O)O)[C@H](C)O` [Analog 2326, RYLP[dT]] (H-RYLP[dT]-OH; N-terminus assumed)?
A: Fold change [3, 8]: 13600.00; EC50 [3, 10]: 2990 nM; Agonist activity / potency on the Varroa mite proctolin receptor, in words ([3]; in words): inactive agonist

Q: With RYLPTG [Analog G6, RYLPTG] as the compound, how does the EC50 [3, 6] read?
A: 478 nM

Q: What about the “Activity at high concentrations compared with proctolin” value [3] of the same compound?
A: higher than that of proctolin

Q: And the Fold change [3, 8]?
A: 2175.00

Q: With `CC(C)C[C@H](NC(=O)[C@@H](Cc1ccc(O)cc1)NC(=O)[C@@H](N)CCCNC(=N)N)C(=O)N1C[C@H](O)C[C@H]1C(=O)N[C@H](C(=O)O)[C@@H](C)O` [Analog 2337, R[dY]L[HyP]T] (H-R[dY]L[Hyp]T-OH; N-terminus assumed) as the compound, how does the “Factor by which potency exceeds that of the corresponding analog with only a single replacement at Y2” value ([3]; 2338 vs 2333, 2337 vs 2329) read?
A: 4

Q: And the EC50 [3, 6]?
A: 36 nM and 35.9 nM

Q: And the Fold change [3, 8]?
A: 163.00

Q: What about the “Efficacy (maximal response)” value ([3]; in words) of the same compound?
A: full efficacy

Q: Which EC50 [3, 6] does the source give for RYLGPT [Analog G4, RYLGPT] here?
A: 1090 nM

Q: And the Fold change [3, 8]?
A: 4954.55

Q: What does the source list for `CC(C)C[C@H](NC(=O)[C@H](Cc1ccc(O)cc1)NC(=O)[C@@H](N)CCCNC(=N)N)C(=O)N1CCC[C@@H]1C(=O)N[C@H](C(=O)O)[C@@H](C)O` [Analog 2327, RYL[dP]T] (H-RYL[dP]T-OH)?
A: Fold change [3, 8]: 2496.82; EC50 [3, 10]: 549 nM

Q: Which EC50 [3, 7] does the source give for `CC(C)C[C@H](NC(=O)[C@H](Cc1ccc(Cl)cc1)NC(=O)[C@@H](N)CCCNC(=N)N)C(=O)N1CCC[C@H]1C(=O)N[C@H](C(=O)O)[C@@H](C)O` [Analog 2440, R[Phe(4-Cl)]LPT] (H-R[Phe(4-Cl)]LPT-OH) here?
A: 7.03 nM

Q: What about the Fold change [3, 9] of the same compound?
A: 0.50

Q: With `CC(C)C[C@H](NC(=O)[C@H](Cc1ccc(O)cc1)NC(=O)[C@@H](N)CCCNC(=N)N)C(=O)N1C[C@H](O)C[C@H]1C(=O)N[C@H](C(=O)O)[C@@H](C)O` [Analog 2334, RYL[HyP]T] (H-RYL[Hyp]T-OH; N-terminus assumed) as the compound, how does the “Individuals with immediate excretion of a drop of fecal material through the anus” value (Varroa mites [4]) read?
A: 3/4

Q: And the “Activity at high concentrations compared with proctolin” value [3]?
A: higher than that of proctolin

Q: What about the Fold change [3, 8] of the same compound?
A: 2.5 and 2.45

Q: What about the EC50 [3, 10] of the same compound?
A: 0.54 nM

Q: What about the “Agonist activity / potency on the Varroa mite proctolin receptor, in words” value ([3]; in words) of the same compound?
A: strong agonists

Q: Which EC50 [3, 6] does the source give for RYLPGT [Analog G5, RYLPGT] here?
A: 1160 nM

Q: And the Fold change [3, 8]?
A: 5259.09

Q: With `CC(C)C[C@H](NC(=O)[C@H](Cc1ccc(O)cc1)NC(=O)[C@@H](N)CCCNC(=N)N)C(=O)N1[C@H](C(=O)N[C@H](C(=O)O)[C@@H](C)O)C[C@@H]2CCCC[C@@H]21` [Analog 2336, RYL[Oic]T] (H-RYL[Oic]T-OH; N-terminus assumed) as the compound, how does the “Negative effects in worker honey bees” value (worker honey bees) read?
A: did not show any negative effects

Q: What about the “Percent effect (paralyzed or dead mites)” value (Varroa mites [5]) of the same compound?
A: 100%

Q: And the “Activity at high concentrations compared with proctolin” value [3]?
A: higher than that of proctolin

Q: And the Fold change [3, 8]?
A: 5.95

Q: And the EC50 [3, 10]?
A: 1.3 nM and 1.31 nM

Q: And the “Agonist activity / potency on the Varroa mite proctolin receptor, in words” value ([3]; in words)?
A: strong agonists
